Reference: patent US7968521B2, “Stable cystal of protected pseudouridine” (Yamasa Corporation, priority 2005, dated 2011)

Assays:
[1] = Stability (1): storage in a sealed vessel at 60° C. and a relative humidity of 30%, percent remaining by HPLC; type: physicochemical; details: relative humidity 30%; for Percent remaining (%) Day 3 / Percent remaining (%) Day 14 / Percent remaining (%) Day 23: sealed vessel; for Percent remaining (%) Day 3: Day 3, HPLC; for Percent remaining (%) Day 14: Day 14, HPLC; for Percent remaining (%) Day 23: Day 23, HPLC
Experimental: (§1) The crystalline 5′-O-(4,4′-dimethoxytrityl)pseudouridine produced in Example 1 was maintained in a sealed vessel at 60° C. and a relative humidity of 30%. Thereafter, the percent remaining of the compound was determined through HPLC, and the value was compared with that of the same compound in amorphous form, which had been separately prepared, so as to evaluate stability.

[2] = Stability (2): storage in a desiccator at 25±2° C. and a relative humidity of 33%, 57% or 75%, percent remaining by HPLC; type: physicochemical; details: fourteen days; for Percent remaining (%) RH 33% / Percent remaining (%) RH 57% / Percent remaining (%) RH 75%: desiccator, HPLC
Experimental: as §1, with “desiccator” for “sealed vessel”, “25±2°” for “60°”, “33%, 57%, or 75%. Fourteen days after,” for “30%. Thereafter,”, “stability. […] At a relative humidity of 75%, the stability clearly varied between the two samples.” for “stability.”

Row | Percent remaining (%) Day 3 [1] [%] | Percent remaining (%) Day 14 [1] [%] | Percent remaining (%) Day 23 [1] [%] | Percent remaining (%) RH 33% [2] [%] | Percent remaining (%) RH 57% [2] [%] | Percent remaining (%) RH 75% [2] [%] | thermal stability compared with the compound of amorphous form [1] | stability against moisture compared with the amorphous form ([2]; relative humidity 33%, 57% or 75%) | Structure (SMILES)
1 | 97.8 | 88.6 | 62.1 | 98.0 | 96.7 | 0.1 | – | – | COc1ccc(C(OC[C@H]2O[C@@H](c3c[nH]c(=O)[nH]c3=O)[C@H](O)[C@@H]2O)(c2ccccc2)c2ccc(OC)cc2)cc1 [Amorphous, 5′-O-(4,4′-dimethoxytrityl)pseudouridine, reference compound]
2 | 99.0 | 97.6 | 95.7 | 98.7 | 98.5 | 60.7 | higher thermal stability | more stable against moisture | COc1ccc(C(OC[C@H]2O[C@@H](c3c[nH]c(=O)[nH]c3=O)[C@H](O)[C@@H]2O)(c2ccccc2)c2ccc(OC)cc2)cc1 [Crystalline, 5′-O-(4,4′-dimethoxytrityl)pseudouridine]
